pIC50: −log10 of the molar value. Activity calls are given as the source filed them. The rule behind the calls is not given here.
Assays:
[1] = biological target: T1, Patatin-like phospholipase domain-containing protein 2 (Mus musculus) (UniProt Q8BJ56); assay: Inhibition of ATGL in mouse 3T3L1 cells assessed as inhibition of isoproterenol-stimulated lipolysis by measuring reduction in non-esterified fatty acid release in media at 20 uM preincubated for 4 hrs followed by isoproterenol addition measured after 1 hr by colorimetric assay; type: cell-based; conditions: 3T3-L1
T1 sequence (whole entry): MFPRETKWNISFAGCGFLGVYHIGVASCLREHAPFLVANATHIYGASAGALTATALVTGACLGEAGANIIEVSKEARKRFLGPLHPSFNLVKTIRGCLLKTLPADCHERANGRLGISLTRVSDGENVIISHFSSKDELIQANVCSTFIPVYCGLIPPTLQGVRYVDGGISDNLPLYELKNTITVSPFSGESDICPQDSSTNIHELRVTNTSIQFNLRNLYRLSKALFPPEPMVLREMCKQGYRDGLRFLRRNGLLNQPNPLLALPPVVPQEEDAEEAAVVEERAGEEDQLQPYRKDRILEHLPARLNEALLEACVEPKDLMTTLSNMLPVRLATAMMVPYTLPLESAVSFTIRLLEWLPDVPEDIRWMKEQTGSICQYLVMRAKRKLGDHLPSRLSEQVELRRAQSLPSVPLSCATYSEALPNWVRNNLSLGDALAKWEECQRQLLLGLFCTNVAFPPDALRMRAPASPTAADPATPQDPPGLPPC

[2] = biological target: T1, Patatin-like phospholipase domain-containing protein 2 (Mus musculus); assay: Inhibition of ATGL in mouse 3T3L1 cells assessed as inhibition of isoproterenol-stimulated lipolysis by measuring reduction in glycerol release in media at 20 uM preincubated for 4 hrs followed by isoproterenol addition measured after 1 hr by colorimetric assay; type: cell-based; conditions: 3T3-L1
[3] = biological target: T2, Patatin-like phospholipase domain-containing protein 2 (Homo sapiens, UniProt Q96AD5); assay: Inhibition of ATGL (unknown origin) overexpressed in Escherichia coli XL-1 cells using [9,10-3H(N)]triolein as substrate incubated for 60 mins by liquid scintillation counting method
T2 sequence (Q96AD5 whole entry): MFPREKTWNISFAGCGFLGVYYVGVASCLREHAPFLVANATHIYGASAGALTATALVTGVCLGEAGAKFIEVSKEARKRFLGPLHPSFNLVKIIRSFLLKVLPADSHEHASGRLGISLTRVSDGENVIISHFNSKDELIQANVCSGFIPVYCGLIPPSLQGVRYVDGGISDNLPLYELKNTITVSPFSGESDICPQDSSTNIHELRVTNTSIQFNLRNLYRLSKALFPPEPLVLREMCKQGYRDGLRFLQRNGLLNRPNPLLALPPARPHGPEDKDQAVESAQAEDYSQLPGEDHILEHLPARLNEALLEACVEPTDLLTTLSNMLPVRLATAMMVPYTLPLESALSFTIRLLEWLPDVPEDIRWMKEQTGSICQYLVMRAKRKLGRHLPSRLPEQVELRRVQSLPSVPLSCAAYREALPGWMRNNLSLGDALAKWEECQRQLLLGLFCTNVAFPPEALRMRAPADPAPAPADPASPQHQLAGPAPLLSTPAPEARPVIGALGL

inhibition [1]	inhibition [2]	pIC50 [3]	Structure (SMILES)
inactive	inactive		CN(C)C(=O)Nc1cccc(-c2cccc(N(C)C)c2)c1
inactive	inactive		CN(C)C(=O)Nc1ccc(-c2ccc(N(C)C)cc2)cc1
inactive	inactive		CN(C)c1cccc(-c2ccccc2)c1
Active		6.15	CN(C)C(=O)Nc1cccc(-c2ccc(N(C)C)cc2)c1
inactive	inactive		CN(C)C(=O)Nc1ccc(NC(=O)N(C)C)cc1
Active	Active		CN(C)C(=O)Nc1cccc(-c2ccccc2)c1
	inactive		CN(C)C(=O)Nc1ccc(-c2ccc(N)cc2)cc1
inactive	inactive		CN(C)C(=O)Nc1cccc(N(C)C)c1
inactive	inactive		CN(C)c1ccc(-c2ccccc2)cc1
	inactive		CN(C)C(=O)Nc1ccc(N(C)C)cc1
inactive	inactive		CN(C)c1cccc(-c2cccc(N(C)C)c2)c1
inactive	inactive		CN(C)c1cccc(N(C)C)c1
inactive	inactive		CN(C)C(=O)Nc1ccc(-c2cccc(N(C)C)c2)cc1
inactive	inactive		CN(C)C(=O)Nc1cccc(-c2cccc(NC(=O)N(C)C)c2)c1
	inactive		CN(C)C(=O)Nc1ccc(-c2ccccc2)cc1
inactive	inactive		CN(C)C(=O)Nc1ccc(-c2ccc(NC(=O)N(C)C)cc2)cc1

Structure (SMILES)	inhibition [1]	inhibition [2]	pIC50 [3]
CN(C)c1ccc(N(C)C)cc1	inactive	inactive	
CN(C)c1ccc(-c2ccc(N(C)C)cc2)cc1	inactive	inactive	
